Results published in US20240124467A1, “FUSED PYRIMIDINE COMPOUNDS AS INHIBITORS OF MENIN-MLL INTERACTION” (Biomea Fusion, Inc., priority 2020, published 2024).
Where two headings read alike, the source gives them in different places.

Columns and labels:
Type in all cases: cell-based
K-562 = assay: Cell proliferation inhibition (CellTiter-Glo), K-562 cells; details: Homo sapiens, K-562 (BCR-ABL)
Protocol: (§1) The present example evaluates the ability of compounds described herein, inhibitors of Menin/MLL interaction, to inhibit cell proliferation. The proliferation inhibitory effect was investigated in human MLL-leukemia cells selected on the bases of MLL fusion proteins and listed in the table below.
(§2) ATP is present in all metabolically active cells and is considered as a marker for cell viability and proliferation. The metabolic cell activity was determined using the CellTiter-Glo kit from Promega, an ATP monitoring system based on the production of luminescence by the reaction of ATP with added UltraGlo® recombinant luciferase (Kawano et al., 2016, PLOS One, 8:11(7):e0158888), according to the supplier's experimental recommendations. The assay is based on a 96 well plate format. All experiments were carried out in duplicate in one test occasion.
(§3) Test items were dissolved at 20 mM in DMSO with purity ≥99.9% (Sigma catalog no. D8418) and stored at −20° C. Cells were maintained in RPMI-1640 medium (Invitrogen catalog no. 618700) supplemented with 10% of Heat Inactivated FBS (Invitrogen catalog no. 10500) and 1% Pen-Strep (Invitrogen catalog no. 15140) and cultured at 37° C. in a humidified incubator with 5% CO2. Cell lines were grown in suspension and the cell density was maintained in a range of 5×10^4-1×10^6 viable cells/ml where possible. Cells were pelleted at 130 g×5 min.
(§4) Serial dilutions of compounds 1 to 3 in DMSO 100% were prepared starting from a 2.5 mM solutions (prepared by diluting 1:8 the 20 mM stock solution) to generate a 7 point concentration response curve (CRC). Seven concentrations of test compounds (e.g., 5.00×10^−6-1.67×10^−6-5.56×10^−7-1.85×10^−7-6.17×10^−8-2.06×10^−8-6.86×10^−9 M) were assessed in duplicate in an individual test occasion in parallel in the selected cell lines. KO-539 was used as a reference compound and tested in duplicate at seven similar concentrations. 100% of proliferation was represented by the untreated cells (0.2% DMSO).
(§5) Cell proliferation inhibition was monitored at both the following end points: Day 4 (T4) and Day 7 (T7). For the appropriate cell density during the exponential cell growth and re-supply with fresh compound solution at T4, cells were diluted (1:4) with fresh medium containing the compound concentration (1×).
(§6) For each plate to test, one 0.4 μL copy plate and four 0.3 μL copy plates were stamped into 96-well plates not treated for cell adhesion (Sarstedt—cat. no. 82.1581.001) by acoustic liquid handling (Echo) at a concentration which was 500 fold the final assay concentration. Stamped plates were stored at −20° C.
(§7) On Day 0, the day of the experiment cell line suspensions were counted by Cell Viability Analyser, Vi-CELL (Beckman Coulter AY15292), and diluted with fresh medium to obtain the following cell densities: K-562 500 c/ml, MOLM-13 1,000 c/ml, MV4-11 10,000 c/ml, OCI-AML-3 500 c/ml, and U-937 500-1,000 c/ml. 200 μL/well and 150 μL/well of cell suspension were added into the 0.4 μL/well and 0.3 μL/well compound plates, respectively. Cell plate containing 200 μL/well suspension were incubated at 37° C. in a humidified incubator with 5% CO2. From each well of the 150 μL/well cell assay plate, 100 μL were harvested and transferred into a 96-well Optiplate (Perkin Elmer, cat. no. 6005290). Cell viability was measured as described below.
(§8) On Day 4, 150p/well of fresh medium was added into a new 0.3 μL/well copy compound plates. From each well of the 200 μL/well cell assay plate, 100 μL was sampled for the cell viability measurement as described below. 50p was harvested and added to the 150p/well compound plate prepared as described in the first point to dilute 1:4 the cell suspension. The cell assay plate diluted and containing 200 μL/well suspension was incubated at 37° C. in a humidified incubator with 5% CO2.
(§9) On Day 4, 150p/well of fresh medium was added into a new 0.3 μL/well copy compound plates. […]

MOLM-13 = assay: Cell proliferation inhibition (CellTiter-Glo), MOLM-13 cells; details: Homo sapiens, MOLM-13 (MLL-AF9)
Protocol: as §1, §2, §3, §4, §5, §6, §7, §8, §9

MV4-11 = assay: Cell proliferation inhibition (CellTiter-Glo), MV4-11 cells; details: Homo sapiens, MV4-11 (MLL-AF4)
Protocol: as §1, §2, §3, §4, §5, §6, §7, §8, §9

OCI-AML3 = assay: Cell proliferation inhibition (CellTiter-Glo), OCI-AML3 cells; details: Homo sapiens
Protocol: as §1, §2, §3, §4, §5, §6, §7, §8, §9

U-937 = assay: Cell proliferation inhibition (CellTiter-Glo), U-937 cells; details: Homo sapiens, U-937 (MLL-wt), Table 3
Protocol: as §1, §2, §3, §4, §5, §6, §7, §8, §9

[1] = K562, 96 h, Day 4, read-out: K-562 IC50 μM (Day 4)
[2] = 96 h, Day 4, read-out: MOLM-13 Day IC50 μM (Day 4)*
[3] = 96 h, Day 4, read-out: MV-4:11 IC50 μM (Day 4)*
[4] = K562, 168 h, Day 7, read-out: K-562 IC50 μM (Day 7)*
[5] = 168 h, Day 7, read-out: MOLM-13 Day IC50 μM (Day 7)*
[6] = 168 h, Day 7, read-out: MV-4:11 IC50 μM (Day 7)*

Compound | IC50 (K-562; [1]) [µM] | IC50 (MOLM-13; [2]) [µM] | IC50 (MV4-11; [3]) [µM] | also measured
C=CC(=O)N1CC(N2CCC(CC(=O)Nc3ccc(-c4cc5c(N6CCOCC6)ncnc5[nH]4)cc3)CC2)C1 [Compound B0700-331, 2-(1-(1-acryloylazetidin-3-yl)piperidin-4-yl)-N-(4-(4-morpholino-7H-pyrrolo[2,3-d]pyrimidin-6-yl)phenyl)acetamide] | – | – | – | IC50 (K-562; K562, 96 h, 4 d, Table 3, read-out: K-562 IC50 μM 4 d): 0.676 µM; IC50 (K-562; K562, 168 h, 7 d, Table 3, read-out: K-562 IC50 μM 7 d): 0.129 µM; IC50 (MOLM-13; 96 h, 4 d, Table 3, read-out: MOLM13 μM 4 d): 0.055 µM; IC50 (MOLM-13; 168 h, 7 d, Table 3, read-out: MOLM13 μM 7 d): 0.03 µM; IC50 (MV4-11; 96 h, 4 d, Table 3, read-out: MV4-11 IC50 μM 4 d): 0.047 µM; IC50 (MV4-11; 168 h, 7 d, Table 3, read-out: MV4-11 IC50 μM 7 d): 0.034 µM; IC50 (OCI-AML3; OCI-AML-3, 96 h, 4 d, Table 3, read-out: OCI-AML3 IC50 μM 4 d): 0.251 µM; IC50 (OCI-AML3; OCI-AML-3, 168 h, 7 d, Table 3, read-out: OCI-AML3 IC50 μM 7 d): 0.115 µM; IC50 (U-937; 96 h, 4 d, read-out: U-937 IC50 μM 4 d): 0.347 µM; IC50 (U-937; 168 h, 7 d, read-out: U-937 IC50 μM 7 d): 0.065 µM
C=CC(=O)N[C@@H]1CCCN(Cc2ccnc(C(C)Nc3ccc(-c4cc5c(N6CCOCC6)ncnc5[nH]4)cc3)c2)C1 (stereo partly drawn) [Compound B0700-514, N-((3R)-1-((2-(1-((4-(4-morpholino-7H-pyrrolo[2,3-d]pyrimidin-6-yl)phenyl)amino)ethyl)pyridin-4-yl)methyl)piperidin-3-yl)acrylamide] | > 10 | 0.631 | 0.651 | IC50 (K-562; [4]): > 10 µM; IC50 (MOLM-13; [5]): 0.546 µM; IC50 (MV4-11; [6]): 0.54 µM
C=CC(=O)N[C@@H]1CCCN(Cc2cccc(S(=O)(=O)Nc3ccc(-c4nc5c(N6CCOCC6)ncnc5s4)cc3)c2)C1 [Compound B0700-532, (R)—N-(1-(3-(N-(4-(7-morpholinothiazolo[5,4-d]pyrimidin-2-yl)phenyl)sulfamoyl)benzyl)piperidin-3-yl)acrylamide] | > 10 | > 10 | > 10 | –
C=CC(=O)N1CCC(N2CCC(S(=O)(=O)Nc3ccc(-c4cc5c(N6CCOCC6)ncnc5[nH]4)cc3)CC2)CC1 [Compound B0700-610, 1′-acryloyl-N-(4-(4-morpholino-7H-pyrrolo[2,3-d]pyrimidin-6-yl)phenyl)-[1,4′-bipiperidine]-4-sulfonamide] | > 10 | 0.806 | 0.487 | IC50 (K-562; [4]): > 10 µM; IC50 (MOLM-13; [5]): 0.458 µM; IC50 (MV4-11; [6]): 0.29 µM
C=CC(=O)N[C@H]1CCN(c2cccc(CS(=O)(=O)Nc3ccc(-c4cc5c(N6CCOCC6)ncnc5[nH]4)cn3)c2)C1 [Compound B0700-536] | > 10 | 5.68 | 3.88 | –
C=CC(=O)N[C@H]1CCCN(c2cccc(C(C)S(=O)(=O)Nc3ccc(-c4cc5c(N6CCOCC6)ncnc5[nH]4)cc3)c2)C1 (stereo partly shown) [Compound B0700-565] | > 10 | 1.03 | 0.274 | –
C=CC(=O)N[C@@H]1CCCN(Cc2ccnc(C(=O)NC3CCC(c4cc5c(N6CCOCC6)ncnc5[nH]4)CC3)c2)C1 (stereo partly drawn) [Compound B0700-526, (R)-4-((3-acrylamidopiperidin-1-yl)methyl)-N-(4-(4-morpholino-7H-pyrrolo[2,3-d]pyrimidin-6-yl)cyclohexyl)picolinamide] | > 10 | 3.46 | 6.83 | –

Further lines, with some results ahead:

IC50 (K-562; [1]) [µM] | IC50 (MOLM-13; [2]) [µM] | IC50 (MV4-11; [3]) [µM] | Compound | also measured
> 10 | > 10 | > 10 | C=CC(=O)N[C@@H]1CCCN(Cc2cccc(S(=O)(=O)NC3CCN(c4nc5c(N6CCOCC6)ncnc5s4)CC3)c2)C1 [Compound B0700-533] | –
4.55 | 0.447 | 0.477 | C=CC(=O)N[C@H]1CCN(c2cccc(C(C)(C)C(=O)Nc3ccc(-c4cc5c(N6CCOCC6)ncnc5[nH]4)cc3)c2)C1 [Compound B0700-617, (S)—N-(1-(3-(2-methyl-1-((4-(4-morpholino-7H-pyrrolo[2,3-d]pyrimidin-6-yl)phenyl)amino)-1-oxopropan-2-yl)phenyl)pyrrolidin-3-yl)acrylamide] | IC50 (K-562; [4]): 4.86 µM; IC50 (MOLM-13; [5]): 0.51 µM; IC50 (MV4-11; [6]): 0.41 µM
8.83 | 1.27 | 0.786 | C=CC(=O)N[C@H]1CCN(c2cccc(CC(=O)Nc3ccc(-c4cc5c(N6CCOCC6)ncnc5[nH]4)cc3)c2)C1 [Compound B0700-618, (S)—N-(1-(3-(2-((4-(4-morpholino-7H-pyrrolo[2,3-d]pyrimidin-6-yl)phenyl)amino)-2-oxoethyl)phenyl)pyrrolidin-3-yl)acrylamide] | IC50 (K-562; [4]): 10.1 µM; IC50 (MOLM-13; [5]): 1.47 µM; IC50 (MV4-11; [6]): 0.78 µM
2.06 | 0.193 | 0.09 | C=CS(=O)(=O)N[C@H]1CCN(c2cccc(CS(=O)(=O)Nc3ccc(-c4cc5c(N6CCOCC6)ncnc5[nH]4)cc3)c2)C1 [Compound B0700-541] | –
> 10 | 1.63 | 0.304 | C=CC(=O)N[C@@H]1CCCN(C(=O)c2ccnc(CNc3ccc(-c4cc5c(N6CCOCC6)ncnc5[nH]4)cc3)c2)C1 [Compound B0700-561, (R)—N-(1-(2-(((4-(4-morpholino-7H-pyrrolo[2,3-d]pyrimidin-6-yl)phenyl)amino)methyl)isonicotinoyl)piperidin-3-yl)acrylamide] | –
2.89 | 0.607 | 0.371 | C=CC(=O)N[C@@H]1CCCN(Cc2ccnc(C(=O)NC3CC=C(c4cc5c(N6CCOCC6)ncnc5[nH]4)CC3)c2)C1 (stereo partly shown) [Compound B0700-527] | –
8.31 | 0.185 | 0.113 | C=CC(=O)N[C@H]1CCN(c2cccc(CS(=O)(=O)Nc3ccc(-c4cc5c(N6CCOCC6)ncnc5[nH]4)cc3)c2)C1 [Compound B0700-511, (S)—N-(1-(3-((N-(4-(4-morpholino-7H-pyrrolo[2,3-d]pyrimidin-6-yl)phenyl)sulfamoyl)methyl)phenyl)pyrrolidin-3-yl)acrylamide] | –
0.805 | 0.311 | 0.345 | C=CC(=O)N[C@@H]1CCCN(Cc2ccc(C)c(C(=O)Nc3ccc(-c4cc5c(N6CCOCC6)ncnc5[nH]4)cc3)c2)C1 [Compound B0700-531] | –
1.48 | 0.54 | 0.47 | C=CC(=O)N[C@@H]1CCCN(Cc2ccnc(C(=O)Nc3ccc(-c4cc5c(C67CCOCC6C7)ncnc5[nH]4)cc3)c2)C1 (stereo partly shown) [Compound B0700-706] | –
